# Source: ChEMBL document CHEMBL1201862, “PubChem BioAssay data set” (2004)
# Calls of active or inactive are those of the source.
# What was measured:
# [1] = target: Neuropeptide Y receptor type 2 (Homo sapiens, UniProt P49146); assay: Fluorescence-based counterscreen for agonists of NPY-Y1: cell-based high-throughput dose response assay for agonists of NPY-Y2.; type: functional
# HEK293 [2] = assay: Fluorescence-based counterscreen for potentiators or agonists of NPY-Y1: cell-based high-throughput dose response assay for inhibitors of cyclic nucleotide gated ion channel (CNGC) activity. In this assay, the parental HEK293 cell line transfected with a cyclic-nucleotide gated ion channel (CNGC)-based cAMP sensor is used to measure inhibition of isoproterenol-induced CNGC …; type: functional; details: Homo sapiens
# [3] = target: Neuropeptide Y receptor type 1 (Homo sapiens, UniProt P25929); assay: Fluorescence-based dose response cell-based high-throughput screening assay for agonists of NPY-Y1. [Related pubchem assays: 1697 (Screening assay (NPY-Y1 agonists).), 1359 (Screening assay (NPY-Y2 potentiators or agonists).), 1304 (Screening assay (NPY-Y1 potentiators or agonists).), 1704 (Screening assay (CNGC inhibitors).), 1791 (Summary AID.)]; type: functional
# [4] = target: Mitochondrial peptide methionine sulfoxide reductase (Bos taurus, UniProt P54149); assay: Absorbance-based biochemical high throughput dose response assay for activators of Methionine sulfoxide reductase A (MsrA).; type: functional
# [5] = cytotoxicity toward NIH3T3 fibroblasts, dose response, counter-screen, cell-based, ATP luminescence, mouse fibroblasts (AID 2010); type: functional;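 further: cells exposed to compound for about 90 hours before reading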
# [6] = inhibitors of intracellular T. cruzi replication, confirmation, NIH3T3 host cells, beta-gal luminescence (AID 2044); type: functional, cell-based;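 further: intracellular parasites grown in NIH/3T3 mouse fibroblasts as host cells; luminescent beta-galactosidase reporter signal from transgenic T. cruzi replicating inside host cells; inhibitors lower the luminescence signal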
# cells = type: functional
# [7] = target: Transitional endoplasmic reticulum ATPase (Homo sapiens, UniProt P55072); assay: p97 ATPase inhibitors, dose response, biochemical (AID 1534)
# [8] = target: Transitional endoplasmic reticulum ATPase (Homo sapiens, UniProt P55072, C522A); assay: C522A mutant p97 ATPase inhibitors, dose response, counter-screen for p97 inhibitor project, biochemical, luminescence (AID 1544)
# [9] = target: Heat shock protein HSP 90-alpha (Homo sapiens, UniProt P07900); type: functional, organism-based
# [10] = target: Acyl-homoserine lactone acylase PvdQ (Pseudomonas aeruginosa (strain LESB58), UniProt Q9I194); assay: P. aeruginosa PvdQ acylase inhibitors, dose response, biochemical, fluorescence, plate reader and imaging, cherry-picks (AID 493231)
# [11] = target: T1, Alkaline phosphatase, tissue-nonspecific isozyme (Homo sapiens, UniProt P05186)
# T1 sequence (P05186 whole entry): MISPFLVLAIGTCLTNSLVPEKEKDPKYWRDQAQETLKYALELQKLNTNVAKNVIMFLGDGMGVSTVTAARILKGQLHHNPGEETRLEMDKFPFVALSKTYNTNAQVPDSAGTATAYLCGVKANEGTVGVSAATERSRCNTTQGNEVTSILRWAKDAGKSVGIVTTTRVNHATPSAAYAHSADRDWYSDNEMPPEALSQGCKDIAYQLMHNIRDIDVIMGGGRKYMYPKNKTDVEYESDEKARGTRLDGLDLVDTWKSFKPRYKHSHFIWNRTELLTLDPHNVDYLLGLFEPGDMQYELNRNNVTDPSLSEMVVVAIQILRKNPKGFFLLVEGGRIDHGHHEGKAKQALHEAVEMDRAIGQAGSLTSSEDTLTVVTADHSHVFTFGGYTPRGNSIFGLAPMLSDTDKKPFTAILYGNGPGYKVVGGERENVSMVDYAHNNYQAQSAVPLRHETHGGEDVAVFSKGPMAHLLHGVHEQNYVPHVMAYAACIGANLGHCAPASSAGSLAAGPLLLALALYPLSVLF
# [12] = target: Female germline-specific tumor suppressor gld-1 (Caenorhabditis elegans, UniProt Q17339); assay: inhibitors of GLD-1 binding to TGE RNA, dose response, biochemical, fluorescence polarization, C. elegans (AID 2802);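 further: fluorescence polarization of labeled TGE RNA bound by purified gld-1 protein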
# [13] = target: T2, Corticotropin-releasing factor receptor 2/Corticotropin-releasing factor-binding protein (Homo sapiens, UniProt P24387+Q13324); assay: activators of CRF receptor 2 with binding protein – uHTS hits, confirmation (AID 602473); type: functional; details: read-out: EC50_Mean
# T2 sequence (Q13324 whole entry): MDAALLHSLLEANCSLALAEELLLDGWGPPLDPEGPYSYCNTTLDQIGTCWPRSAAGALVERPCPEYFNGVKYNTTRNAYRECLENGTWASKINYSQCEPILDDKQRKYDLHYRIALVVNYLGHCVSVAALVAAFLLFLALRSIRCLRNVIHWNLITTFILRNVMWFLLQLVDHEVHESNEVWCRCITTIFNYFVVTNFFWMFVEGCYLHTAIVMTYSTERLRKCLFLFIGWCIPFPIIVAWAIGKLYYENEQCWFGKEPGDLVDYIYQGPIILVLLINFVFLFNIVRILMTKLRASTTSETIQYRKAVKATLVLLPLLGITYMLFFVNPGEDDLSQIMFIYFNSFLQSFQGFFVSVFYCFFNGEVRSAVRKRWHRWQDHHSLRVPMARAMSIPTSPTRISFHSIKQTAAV
# T2 sequence (P24387 whole entry): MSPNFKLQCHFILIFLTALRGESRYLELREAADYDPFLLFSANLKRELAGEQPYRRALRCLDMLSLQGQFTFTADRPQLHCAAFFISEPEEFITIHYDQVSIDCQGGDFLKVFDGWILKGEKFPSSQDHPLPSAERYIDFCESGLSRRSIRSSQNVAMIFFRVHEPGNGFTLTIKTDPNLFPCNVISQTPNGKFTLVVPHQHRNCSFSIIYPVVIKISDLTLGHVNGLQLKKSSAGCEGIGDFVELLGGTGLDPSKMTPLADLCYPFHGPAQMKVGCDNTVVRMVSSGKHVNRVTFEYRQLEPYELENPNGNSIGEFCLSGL
# [14] = target: T3, Sentrin-specific protease 1 (Homo sapiens, UniProt Q9P0U3); assay: potency of human SENP1 inhibitors, dose response, biochemical, kinetic FRET (AID 651697); type: functional; details: read-out: IC50_Mean
# T3 sequence (Q9P0U3 whole entry): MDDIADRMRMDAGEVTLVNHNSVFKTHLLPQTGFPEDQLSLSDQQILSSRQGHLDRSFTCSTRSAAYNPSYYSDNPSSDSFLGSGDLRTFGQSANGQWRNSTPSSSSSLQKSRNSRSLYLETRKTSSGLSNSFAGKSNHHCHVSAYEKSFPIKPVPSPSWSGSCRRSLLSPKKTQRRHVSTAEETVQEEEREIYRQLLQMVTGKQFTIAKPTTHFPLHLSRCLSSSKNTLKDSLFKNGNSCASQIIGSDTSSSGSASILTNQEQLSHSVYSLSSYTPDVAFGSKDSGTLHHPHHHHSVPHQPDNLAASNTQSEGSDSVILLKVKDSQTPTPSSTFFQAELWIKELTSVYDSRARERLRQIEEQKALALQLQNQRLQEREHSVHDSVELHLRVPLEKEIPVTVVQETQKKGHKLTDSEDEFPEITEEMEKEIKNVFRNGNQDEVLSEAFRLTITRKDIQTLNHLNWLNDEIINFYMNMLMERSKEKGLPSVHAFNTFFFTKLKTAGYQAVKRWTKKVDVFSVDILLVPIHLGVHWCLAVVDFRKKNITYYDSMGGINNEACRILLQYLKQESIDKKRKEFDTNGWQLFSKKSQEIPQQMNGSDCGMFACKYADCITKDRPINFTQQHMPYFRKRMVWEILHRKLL
# Protein Rev = Protein Rev (Human immunodeficiency virus type 1 group M subtype B (isolate HXB2)(HIV-1), UniProt P04618); assay: inhibitors of Rev binding to RRE RNA, dose response, biochemical, fluorescence polarization, HIV-1 (AID 434976); parameters: species or system Human immunodeficiency virus 1
# [15] = target: T4, Polyadenylate-binding protein 1 (Homo sapiens, UniProt P11940); assay: PABP1 MLLE–PAM2 interaction inhibitors, dose response, miRNA deadenylation inhibitor project, biochemical, fluorescence polarization, Cy5-PAM2 peptide, secondary (AID 602260); type: functional; details: read-out: IC50_Mean
# [16] = target: T3, Sentrin-specific protease 1; assay: Dose response confirmation of small molecule inhibitors of the catalytic domain of the SUMO protease, SENP1 in a FRET assay.; type: functional; details: read-out: IC50_Mean
# [17] = target: T4, Polyadenylate-binding protein 1; assay: PABP1 MLLE–PAM2 binding inhibitor potency, dose response, biochemical, fluorescence polarization, FITC-PAM2 peptide (AID 602259); type: functional; details: read-out: IC50_Mean
# [18] = target: Photoreceptor-specific nuclear receptor (Homo sapiens, UniProt Q9Y5X4); type: functional, cell-based;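 further: CHO-S cells with Gal4-NCOR and VP16-NR2E3 two-hybrid luciferase reporter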
# [19] = LGR2 antagonists, dose response, cell-based, HEK293, CRE-luciferase reporter, cherry pick, set 2 (AID 743343); type: functional;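 further: transfected cells were stimulated with diluted bursicon conditioned medium after compound addition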
# [20] = target: Luciferin 4-monooxygenase (Photinus pyralis, UniProt P08659); assay: In vitro luciferase assay using purified luciferase. [Related pubchem assays: 1299, 1270, 1295, 1375, 1287, 1281, 1293, 1291, 1289, 1280, 465, 1364, 1282, 1372, 1365, 1370, 1367, 1366, 1266, 1373, 1292, 1290, 1302, 1371, 1283, 1271, 1294, 1374, 1368, 1369 ]
# [21] = HepG2 cell cytotoxicity, dose response, cytotoxicity control, plate reader, cherry-pick, antagonist series (AID 743416); type: functional, cell-based
# HEK293 [22] = assay: PMA/Ionomycin induced NF-kB luciferase assay in 293- NF-kB-Luc stable cells. [Related pubchem assays: 1299, 1270, 1295, 1375, 1287, 1281, 1293, 1291, 1289, 1280, 465, 1364, 1282, 1372, 1365, 1370, 1367, 1366, 1269, 1373, 1292, 1290, 1302, 1371, 1283, 1271, 1294, 1374, 1368, 1369 ]; type: functional, cell-based; details: Homo sapiens
# [23] = HEK293 cell cytotoxicity, dose response, cytotoxicity control, plate reader, cherry-picked samples (AID 743446); type: functional, cell-based
# HEK293 [24] = assay: TNF Induced NF-kB Luciferase in 293-NF-kB-Luc Stable Cells. [Related pubchem assays: 1266, 1299, 1269, 1373, 1292, 1290, 1302, 1371, 1283, 1270, 1295, 1271, 1375, 1294, 1374, 1281, 1293, 1291, 1289, 1280, 465, 1368, 1364, 1282, 1372, 1365, 1369, 1370, 1367, 1366 ]; type: functional, cell-based; details: Homo sapiens
# [25] = MC4R antagonists, dose response, counter-screen for LGR2 antagonist project, cell-based, plate reader, cherry pick (AID 743444); type: functional;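 further: transfected HEK 293 cells stimulated with alpha-MSH peptide; potency of inhibitors of the alpha-MSH evoked signal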
# [26] = A549 cell cytotoxicity, dose response, cytotoxicity control, plate reader, cherry-pick, antagonist series (AID 743412); type: functional, cell-based
# HEK293 [27] = assay: Cytotoxicity assay in HEK293 cells. [Related pubchem assays (depositor defined):AID1266, AID1269, AID1270, AID1271, AID1280, AID1281, AID1282, AID1283, AID1287, AID1289, AID1290, AID1291, AID1292, AID1293, AID1294, AID1295, AID1299, AID1302, AID1364, AID1365, AID1366, AID1367, AID1369, AID1370, AID1371, AID1372, AID1373, AID1374, AID1375, AID1384 …; type: functional, cell-based; details: Homo sapiens
# [28] = target: T5, Neuropeptides B/W receptor type 1 (Homo sapiens, UniProt P48145); assay: GPR7 antagonist potency, late-stage follow-up, cell-based, fluorescence, dose response (AID 463251); type: functional
# T5 sequence (P48145 whole entry): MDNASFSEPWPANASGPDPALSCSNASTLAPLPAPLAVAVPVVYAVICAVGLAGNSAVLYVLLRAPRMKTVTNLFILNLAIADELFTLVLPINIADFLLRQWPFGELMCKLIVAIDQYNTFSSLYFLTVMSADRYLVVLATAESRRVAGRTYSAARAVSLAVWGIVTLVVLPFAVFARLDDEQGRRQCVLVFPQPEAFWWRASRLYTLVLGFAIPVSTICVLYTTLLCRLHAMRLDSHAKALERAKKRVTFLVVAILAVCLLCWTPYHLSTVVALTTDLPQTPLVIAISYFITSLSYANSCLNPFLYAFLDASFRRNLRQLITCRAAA
# [29] = target: Melanin-concentrating hormone receptor 1 (Homo sapiens, UniProt Q99705); assay: Late-stage fluorescence-based counterscreen for antagonists of the G-protein coupled receptor 7 (GPR7): cell-based dose response assay to identify antagonists of the melanin-concentrating hormone receptor 1 (MCHR1). [Related pubchem assays (depositor defined):AID1861, AID1880, AID1952, AID2148, AID2251, AID2257, AID485339]; type: functional;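 further: stimulated with 30 nM MCH peptide agonist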
# Sequence of Melanin-concentrating hormone receptor 1 (Q99705 whole entry): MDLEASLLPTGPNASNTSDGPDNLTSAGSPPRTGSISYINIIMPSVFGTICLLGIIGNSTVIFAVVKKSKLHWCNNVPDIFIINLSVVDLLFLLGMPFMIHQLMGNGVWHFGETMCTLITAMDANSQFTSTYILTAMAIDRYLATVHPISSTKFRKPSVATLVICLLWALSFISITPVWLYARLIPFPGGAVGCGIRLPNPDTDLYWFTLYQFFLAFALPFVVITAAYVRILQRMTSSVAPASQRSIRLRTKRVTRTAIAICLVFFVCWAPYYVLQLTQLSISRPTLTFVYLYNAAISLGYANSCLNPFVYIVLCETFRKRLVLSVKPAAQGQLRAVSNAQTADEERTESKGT
# T4 sequence (P11940 whole entry, the tested form may be a part): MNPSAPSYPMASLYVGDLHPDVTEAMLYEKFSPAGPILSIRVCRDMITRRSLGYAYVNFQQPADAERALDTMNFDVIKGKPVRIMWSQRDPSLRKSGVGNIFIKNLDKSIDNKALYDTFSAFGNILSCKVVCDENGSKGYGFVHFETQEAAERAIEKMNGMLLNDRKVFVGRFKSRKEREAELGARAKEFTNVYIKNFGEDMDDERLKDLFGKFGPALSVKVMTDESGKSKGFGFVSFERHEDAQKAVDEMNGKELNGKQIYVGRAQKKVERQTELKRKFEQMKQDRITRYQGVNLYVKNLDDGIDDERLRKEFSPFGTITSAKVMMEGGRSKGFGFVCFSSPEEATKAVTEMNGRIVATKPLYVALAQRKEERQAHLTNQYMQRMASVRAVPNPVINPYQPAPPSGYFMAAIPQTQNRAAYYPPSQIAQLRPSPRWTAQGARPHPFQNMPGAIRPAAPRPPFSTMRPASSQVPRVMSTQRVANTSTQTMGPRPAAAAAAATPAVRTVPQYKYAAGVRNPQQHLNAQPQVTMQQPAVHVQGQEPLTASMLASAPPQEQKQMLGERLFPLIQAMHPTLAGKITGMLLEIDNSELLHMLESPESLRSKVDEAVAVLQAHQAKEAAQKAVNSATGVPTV
# Sequence of Protein Rev (P04618 whole entry): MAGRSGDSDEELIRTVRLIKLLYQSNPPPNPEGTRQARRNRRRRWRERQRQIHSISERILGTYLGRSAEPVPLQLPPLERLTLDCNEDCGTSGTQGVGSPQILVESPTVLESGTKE
# Sequence of Acyl-homoserine lactone acylase PvdQ (Q9I194 24-193 limits assumed): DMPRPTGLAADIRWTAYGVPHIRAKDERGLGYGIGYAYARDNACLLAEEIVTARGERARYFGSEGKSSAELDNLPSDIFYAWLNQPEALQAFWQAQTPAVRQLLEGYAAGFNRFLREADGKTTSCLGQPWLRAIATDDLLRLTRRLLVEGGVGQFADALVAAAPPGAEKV
# Sequence of Acyl-homoserine lactone acylase PvdQ (Q9I194 217-762 limits assumed): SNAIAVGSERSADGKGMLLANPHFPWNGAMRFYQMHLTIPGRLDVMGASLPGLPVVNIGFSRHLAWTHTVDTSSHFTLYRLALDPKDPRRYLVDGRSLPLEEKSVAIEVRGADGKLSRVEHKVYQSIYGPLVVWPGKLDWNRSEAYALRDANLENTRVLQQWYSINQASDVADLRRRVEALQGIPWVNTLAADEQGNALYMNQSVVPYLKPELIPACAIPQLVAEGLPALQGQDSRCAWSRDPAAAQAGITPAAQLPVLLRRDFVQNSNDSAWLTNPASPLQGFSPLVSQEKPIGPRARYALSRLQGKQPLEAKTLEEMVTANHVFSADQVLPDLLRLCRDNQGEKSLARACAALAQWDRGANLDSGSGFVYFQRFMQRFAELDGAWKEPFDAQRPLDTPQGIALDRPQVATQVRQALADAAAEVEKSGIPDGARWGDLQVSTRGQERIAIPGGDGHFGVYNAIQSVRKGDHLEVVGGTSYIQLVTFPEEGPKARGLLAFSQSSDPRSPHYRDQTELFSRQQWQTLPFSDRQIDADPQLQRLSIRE
# Sequence of Transitional endoplasmic reticulum ATPase (Homo sapiens, UniProt P55072, C522A) (P55072 2-806 C522A limits assumed): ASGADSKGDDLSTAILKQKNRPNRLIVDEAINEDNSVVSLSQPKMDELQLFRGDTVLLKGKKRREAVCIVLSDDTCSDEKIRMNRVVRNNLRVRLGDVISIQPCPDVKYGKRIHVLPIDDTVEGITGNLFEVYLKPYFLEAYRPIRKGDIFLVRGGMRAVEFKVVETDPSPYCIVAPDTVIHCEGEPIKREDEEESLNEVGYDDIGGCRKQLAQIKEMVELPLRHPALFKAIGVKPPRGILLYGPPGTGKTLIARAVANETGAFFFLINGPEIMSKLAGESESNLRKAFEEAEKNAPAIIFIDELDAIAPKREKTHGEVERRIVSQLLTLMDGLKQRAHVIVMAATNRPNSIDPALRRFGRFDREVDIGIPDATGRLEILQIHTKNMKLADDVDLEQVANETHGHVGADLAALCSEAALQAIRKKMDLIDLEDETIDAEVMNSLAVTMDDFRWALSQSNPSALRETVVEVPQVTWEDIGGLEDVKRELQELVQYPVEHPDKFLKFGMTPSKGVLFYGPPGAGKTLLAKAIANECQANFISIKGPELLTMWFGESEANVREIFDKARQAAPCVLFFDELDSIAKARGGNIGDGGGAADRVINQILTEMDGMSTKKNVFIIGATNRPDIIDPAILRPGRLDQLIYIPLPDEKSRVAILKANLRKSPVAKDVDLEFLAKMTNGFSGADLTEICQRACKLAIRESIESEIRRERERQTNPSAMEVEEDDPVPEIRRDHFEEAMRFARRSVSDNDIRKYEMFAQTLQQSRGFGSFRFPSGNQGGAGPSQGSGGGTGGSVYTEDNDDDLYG
# Sequence of Neuropeptide Y receptor type 1 (P25929 whole entry): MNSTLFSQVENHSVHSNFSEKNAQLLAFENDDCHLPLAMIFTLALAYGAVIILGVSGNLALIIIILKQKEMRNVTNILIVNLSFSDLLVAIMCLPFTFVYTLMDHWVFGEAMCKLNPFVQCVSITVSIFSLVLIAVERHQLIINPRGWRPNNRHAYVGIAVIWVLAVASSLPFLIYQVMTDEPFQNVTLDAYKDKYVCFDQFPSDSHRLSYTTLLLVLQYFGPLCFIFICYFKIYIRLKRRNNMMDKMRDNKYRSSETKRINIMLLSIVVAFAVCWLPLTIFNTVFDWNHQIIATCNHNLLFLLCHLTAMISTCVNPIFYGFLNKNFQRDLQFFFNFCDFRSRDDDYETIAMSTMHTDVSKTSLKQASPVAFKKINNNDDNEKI
# Sequence of Female germline-specific tumor suppressor gld-1 (Q17339 whole entry): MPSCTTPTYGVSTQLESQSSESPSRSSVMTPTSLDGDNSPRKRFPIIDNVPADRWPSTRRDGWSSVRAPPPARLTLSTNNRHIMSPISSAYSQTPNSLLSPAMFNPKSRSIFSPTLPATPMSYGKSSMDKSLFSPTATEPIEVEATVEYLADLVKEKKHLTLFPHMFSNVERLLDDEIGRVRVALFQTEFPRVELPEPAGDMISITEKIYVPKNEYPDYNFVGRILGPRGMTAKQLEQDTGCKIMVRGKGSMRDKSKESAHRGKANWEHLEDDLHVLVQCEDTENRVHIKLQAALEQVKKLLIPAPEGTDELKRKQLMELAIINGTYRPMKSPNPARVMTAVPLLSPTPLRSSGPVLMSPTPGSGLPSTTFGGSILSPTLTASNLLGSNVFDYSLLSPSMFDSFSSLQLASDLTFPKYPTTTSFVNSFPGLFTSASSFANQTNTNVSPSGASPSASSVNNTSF
# Sequence of Luciferin 4-monooxygenase (P08659 whole entry): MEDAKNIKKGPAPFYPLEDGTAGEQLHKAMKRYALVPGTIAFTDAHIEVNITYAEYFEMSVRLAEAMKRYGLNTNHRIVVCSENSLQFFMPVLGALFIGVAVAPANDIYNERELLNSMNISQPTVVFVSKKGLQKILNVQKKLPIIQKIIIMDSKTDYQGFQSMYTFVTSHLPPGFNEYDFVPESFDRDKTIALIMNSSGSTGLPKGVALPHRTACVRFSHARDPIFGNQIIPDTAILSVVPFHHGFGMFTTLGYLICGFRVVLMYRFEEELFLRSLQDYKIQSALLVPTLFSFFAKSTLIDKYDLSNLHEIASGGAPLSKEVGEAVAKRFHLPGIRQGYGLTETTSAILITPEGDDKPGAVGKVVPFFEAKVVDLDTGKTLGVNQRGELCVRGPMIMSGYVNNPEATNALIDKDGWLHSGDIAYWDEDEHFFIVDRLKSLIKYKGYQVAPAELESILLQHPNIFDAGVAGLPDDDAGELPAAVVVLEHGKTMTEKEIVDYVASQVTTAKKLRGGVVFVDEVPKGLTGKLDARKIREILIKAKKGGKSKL
# Sequence of Mitochondrial peptide methionine sulfoxide reductase (P54149 whole entry): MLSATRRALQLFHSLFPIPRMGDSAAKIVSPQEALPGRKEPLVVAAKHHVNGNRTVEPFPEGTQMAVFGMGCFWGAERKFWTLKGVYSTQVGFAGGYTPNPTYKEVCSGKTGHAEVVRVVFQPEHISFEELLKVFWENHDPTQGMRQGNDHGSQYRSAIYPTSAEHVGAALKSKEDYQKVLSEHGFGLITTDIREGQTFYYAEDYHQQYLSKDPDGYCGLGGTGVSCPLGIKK
# Sequence of Neuropeptide Y receptor type 2 (P49146 whole entry): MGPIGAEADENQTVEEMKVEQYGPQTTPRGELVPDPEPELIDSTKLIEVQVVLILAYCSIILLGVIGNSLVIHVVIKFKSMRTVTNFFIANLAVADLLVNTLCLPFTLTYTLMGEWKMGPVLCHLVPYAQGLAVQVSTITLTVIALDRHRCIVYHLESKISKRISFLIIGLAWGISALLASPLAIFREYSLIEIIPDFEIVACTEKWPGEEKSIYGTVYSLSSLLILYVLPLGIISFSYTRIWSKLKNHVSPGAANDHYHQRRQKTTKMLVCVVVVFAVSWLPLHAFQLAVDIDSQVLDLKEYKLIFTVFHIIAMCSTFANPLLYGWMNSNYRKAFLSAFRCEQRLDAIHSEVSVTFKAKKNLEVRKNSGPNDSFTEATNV
compound,measurement,setting,value
CC(C)(C)NC(=O)C(c1ccc(O)cc1)N(C(=O)Cn1nnc(-c2ccc(F)cc2)n1)c1ccccc1F (stereo unspecified),EC50,[1],> 35.4 µM (not active)
same,IC50,HEK293 [2],16.8 µM (not active)
same,EC50,[3],> 35.4 µM (not active)
O=C(OCC(=O)c1c[nH]c2ccccc12)c1ccc([N+](=O)[O-])s1,EC50,[4],36.4 µM (inactive)
same,EC50,[5],> 60 µM (not active)
same,EC50,[6],1.04 µM (active)
same,IC50,cells,1.62 µM (active)
same,IC50,[7],> 50 µM (not active)
same,IC50,[8],> 50 µM (not active)
same,AC50,[9],3.8 µM (active)
Clc1cccc(CNCCCSc2ncccn2)c1,AC50,[10],6.84 µM (active)
Cc1c(Cl)c(C(=O)NNC(=S)Nc2ccccc2)nn1C,EC50,[11],50.5 µM (not active)
O=C1C2=C(SCCS2)C(=O)N1CCCO,IC50,[12],4.07 µM (active)
same,EC50,[13],> 53 µM (inactive)
same,IC50,[14],20.5 µM (inactive)
same,IC50,Protein Rev,> 75.4 µM (not active)
same,IC50,[15],> 66 µM (inactive)
same,IC50,[16],35.2 µM (inactive)
same,IC50,[17],28 µM (inactive)
Clc1ccc(-n2ncc3c(N4CCCCCC4)ncnc32)cc1,IC50,[18],4.43 µM (active)
same,AC50,[19],< 0.068 µM (active)
same,EC50,[20],> 8 µM (not active)
same,AC50,[21],> 52 µM (inactive)
same,EC50,HEK293 [22],2.77 µM (active)
same,AC50,[23],> 52 µM (inactive)
same,EC50,HEK293 [24],3.73 µM (active)
same,AC50,[25],< 0.068 µM (active)
same,AC50,[26],> 52 µM (inactive)
same,EC50,HEK293 [27],> 13.2 µM (inactive)
Cc1cccc(CN2CCCCC2C(=O)N2CCN(c3ccc([N+](=O)[O-])cc3)CC2)c1 (stereo unspecified),IC50,[28],10 µM (active)
same,IC50,[29],6.1 µM (active)
